Where a chain is given by its changes, count along the chain named. “And” between values parts separate entries of the source, which are not always exact repeats. Equal values may be shown once.
Tests used:
[1] = system: Human umbilical vein endothelial cells (HUVEC); experiment: Endothelial cell proliferation assay; type: cell-based; conditions: for biological activity in the HUVEC assay: Table 4, compared with rPF4-211; for inhibition of human umbilical vein endothelial cell proliferation: FIG. 6
Procedure: Endothelial Cell Proliferation Assay. Human umbilical vein endothelial cells (HUVEC) were cultured in Medium 199 (Gibco) containing 10% (v/v) fetal bovine serum (FBS), 150 mcg/ml endothelial cell growth supplement (ECGS) and 5 units/ml heparin at 37° C. and 4-5% CO2. Every 3-4 days, the cultures were harvested by trypsin treatment, diluted, replated, and grown to confluence. Prior to the start of an experiment, the cells were centrifuged and resuspended in heparin-free media and incubated with the test substance (PF4) for 3 days under standard culture conditions. At the end of the incubation period, the cells were removed by trypsin treatment and counted with a Particle Data Elzone 180 Cell Counter. Statistical significance between means was determined by a standard Student t-test for unpaired data. […]

angiogenesis on the CAM = experiment: Chicken chorioallantoic membrane (CAM) assay; type: in vivo; conditions: for biological activity in the CAM assay: Table 4, compared with rPF4-211
Procedure: Chicken Chorioallantoic Membrane (CAM) Assay. Fertile eggs were incubated in a stationary position for 3 days at 37° C. and 70-80% relative humidity. During this time, the embryo rose to the upper surface of the egg contents. At the beginning of the 4th day, the eggs were cracked without inversion and carefully deposited into sterile plastic petri dishes such that the embryo remained on the upper surface. The shell-free eggs were incubated for an additional 72 hours at 37° C., under an atmosphere containing 2.5-3.5% CO2 after which the growing embryos developed a recognizable CAM. Discs, made by mixing test samples with 1% (w/v) methylcellulose, were dried and placed on the CAM between major veins and approximately 0.5 cm from the embryo. Following another 48 hour incubation at 37° C. (2.5-3.5% CO2), the samples were scored for their ability to inhibit angiogenesis. Inhibition appears as an avascular zone surrounding the implant and can often include elbows formed by veins avoiding the disc and a reduced number of capillaries in the region of the implant.

[2] = system: hind footpad (murine dermis); conditions: mouse, in vivo
Procedure: (§1) Footpad Assay. 0.05 ml of PBS containing a test substance was injected intradermally into the right hind footpad of each mouse. An identical amount of diluent, not containing the test substance, was injected into the left hind footpad. At various time points, footpad thicknesses were measured with a spring loaded engineer's micrometer (Fowler Co., Biggswald, England).
(§2) At various time points, mice were sacrificed and footpad tissue was prepared for light microscopy. This tissue was used to quantify infiltrating cell types. Biopsy specimens were fixed in 10% buffered formalin for at least 48 hours and then prepared using standard techniques of paraffin embedding and staining with hematoxylin and eosin. Using an ocular grid, four cellular areas of dermis in each specimen were examined in a coded fashion at 1000× magnification and inflammatory cells were quantified. Differences between groups were assessed by Student's t test or analysis of variance, where appropriate.
(§3) For each mouse, 0.05 mg, slow release indomethacin pellets (Innovative Research, Toledo, Ohio) were implanted subcutaneously under light ether anesthesia 48 hours prior to an experiment. These pellets continuously release their contents over 14 days.

[3] = system: B16 murine melanoma cell line; experiment: Systemic rPF4 against B16 melanoma lung metastases; type: in vivo; conditions: for # of Metastases (#/Mouse) / Lung Wt.: day 21, average of six mice
Procedure: Cells of a B16 murine melanoma cell line were injected intravenously into a tail vein of a mouse. Thirty seconds later, rPF4 (in saline or acetate buffer) was injected into the same mouse via a different tail vein. After 21 days, the tumor burden of the test and control animals was measured by counting, optically, lung metastases, and by weighing the lungs of the mice. Referring to Table 6, PF4 produced a dose-dependent effect, as measured by both parameters.

Kaposi's sarcoma = experiment: Cancers that contain malignant endothelial cells; conditions: such as Kaposi's sarcoma
Implanted tumors = experiment: Anti-tumor activity of rPF4 combined with indomethacin; type: in vivo, mice; conditions: s.c. tumors, indomethacin 50 μg slow release pellet; FIG. 10
Procedure: Four groups of mice were used in this experiment. In two groups of mice, slow release indomethacin pellets (50 μg) were implanted surgically under the skin of the left flank. The other two groups were not treated with indomethacin. Tumors were implanted subcutaneously in all four groups in the right flank.

[4] = system: B16-F10 melanoma tumor line; experiment: In vivo tumor growth assay, injection into the nascent tumor; set-up: species or system C57BL/6J female mice
Procedure: In vivo Tumor Growth Assay. Normal C57BL/6J female mice (6-8 weeks old) were inoculated subcutaneously with 5×10^5 log phase cells of a B16-F10 melanoma tumor line. This protocol led to progressive tumor growth resulting in large (300 mm^3) necrotic tumors after approximately 10 days, followed by death of untreated animals usually within three weeks of tumor inoculation.
To test the efficacy of rPF4 in preventing in vivo tumor growth and angiogenesis, tumor bearing animals were injected daily, directly into the nascent tumor, with either rPF4 or with buffer lacking rPF4, beginning one day after tumor inoculation. Tumor volume was measured at regular intervals with digital calipers by laboratory personnel uninformed of the specific treatment received by each subject animal.
The efficacy of rPF4-211 or rPF4-241 in preventing tumor growth and angiogenesis was tested. The inhibition of in vivo tumor growth was assayed after injection of either rPF4-211 (in 20 mM NaOAc, pH 4.0) or rPF4-241 (in 50 mM sodium phosphate, pH 6.5, 50 mM NaCl) directly into the nascent tumor, as described in the materials and methods section above.

[5] = system: heparin inhibition of Factor Xa; experiment: Factor Xa assay of heparin binding (prevention of heparin inhibition); type: biochemical
Text: The lysine rich region of PF4 (residues 61-66) is also the domain associated with the binding of heparin by PF4. Heparin is known to play a role in modulating angiogenesis, which can also be affected by protamine, another well characterized heparin-binding protein. To assess the ability of PF4-based synthetic peptides to bind heparin, we assayed the activity of coagulation-cascade enzymes which are inhibited by heparin. The Factor Xa assay used here has previously been described in Denton et al. (1983) Biochem. J. 209:455-460.

[6] = system: heparin inhibition of thrombin; experiment: Thrombin assay of heparin binding (prevention of heparin inhibition); type: biochemical; conditions: C-13: even at ten times an effective level of rPF4
[7] = system: Human umbilical vein endothelial cells (HUVEC); experiment: Endothelial cell proliferation assay; type: cell-based; conditions: rPF4 50 mcg/ml, 5 u/ml heparin
tumor cell growth = experiment: Tumor cell growth in vitro; type: cell-based
[8] = system: hind footpad (murine dermis); experiment: Footpad assay (dermal inflammation); conditions: systemic indomethacin
Procedure: as §1, §2, §3

[9] = 0.375 mg rPF4 i.v. (19.7 mg/kg)
[10] = heparin-deficient medium, FIG. 3

Q: How did the “biological activity in the HUVEC assay” value [1] turn out when “rPF4-231: rPF4 mutant that terminates at amino acid number 60: [PF4 AA 1-57] P L Y (EAEEDGDLQCLCVKTTSQVRPRHITSLEVIKAGPHCPTAQLIATLKNGRKICLDLQAPLY; Platelet factor 4 recombinant; UniProt P02776 32-91, looked up, fragment)” was run?
A: does not exhibit significant biological activity

Q: And the “biological activity in the CAM assay” value (angiogenesis on the CAM)?
A: does not exhibit significant biological activity

Q: For cytochrome c [reference compound], which inflammatory response [2] is on record?
A: failed to elicit a significant inflammatory response

Q: Which “# of Metastases (#/Mouse)” value [3, 9] does the source give for “rPF4: recombinant platelet factor 4 with the wild type sequence, 70 residues; residues 58-70 P L Y K K I I K K L L E S” here?
A: 112.2 #/Mouse

Q: What about the “Lung Wt.” value [3, 9] of the same molecule?
A: 525 mg

Q: And the “# of Metastases (#/Mouse)” value ([3]; 0.75 mg rPF4 i.v. (40.1 mg/kg))?
A: 66.0 #/Mouse

Q: What about the “Lung Wt.” value ([3]; 0.75 mg rPF4 i.v. (40.1 mg/kg)) of the same molecule?
A: 404 mg

Q: And the “# of Metastases (#/Mouse)” value ([3]; 1.5 mg rPF4 i.v. (84.2 mg/kg))?
A: 54.7 #/Mouse

Q: What about the “Lung Wt.” value ([3]; 1.5 mg rPF4 i.v. (84.2 mg/kg)) of the same molecule?
A: 357 mg

Q: What about the “toxicity or other adverse effects” value ([3]; systemic dosages in excess of 5000 μg per kg of body weight) of the same molecule?
A: no observable toxicity or other adverse effects

Q: And the “effect on cancers that contain malignant endothelial cells” value (Kaposi's sarcoma)?
A: inhibitory

Q: What about the “inhibition of human umbilical vein endothelial cell proliferation” value [1] of the same molecule?
A: effective at inhibiting the proliferation

Q: What about the “concentration at which inhibition of endothelial cell growth was complete” value [1, 10] of the same molecule?
A: 3.2 µM

Q: What about the “lowest concentration with significant inhibition of endothelial cell growth” value [1, 10] of the same molecule?
A: 1.3 µM

Q: What about the “endothelial cell growth (cell count)” value ([1]; rPF4 50 mcg/ml, no heparin, three day incubation) of the same molecule?
A: 6.0 ± 0.6

Q: And the “% Inhibition” value ([1]; rPF4 50 mcg/ml, no heparin, based on seeding of 8 × 10^4 cells/well)?
A: 100% and ~ 100%

Q: What about the “inhibition of angiogenesis on the CAM” value (angiogenesis on the CAM; discs containing several concentrations, FIG. 2) of the same molecule?
A: inhibited angiogenesis

Q: And the “growth of implanted tumors” value (Implanted tumors)?
A: grew very little, if at all

Q: What about the “time until inhibition of tumor growth was apparent” value ([4]; after the initial inoculation of rPF4) of the same molecule?
A: apparent within three days

Q: And the “tumor growth on continued treatment” value ([4]; daily injection into the tumor)?
A: completely suppressed tumor growth

Q: And the tumor status ([4]; within seven days of tumor inoculation, daily injection into the tumor, FIG. 7)?
A: essentially tumor-free

Q: What about the “prevention of heparin inhibition of Factor Xa” value [5] of the same molecule?
A: approximately equimolar concentrations

Q: What about the “prevention of heparin inhibition of thrombin” value [6] of the same molecule?
A: approximately equimolar concentrations

Q: What about the “Pro-inflammatory response Infiltrating” value [2] of the same molecule?
A: ++

Q: And the “Pro-inflammatory response Swelling” value [2]?
A: ++

Q: And the “composition of the inflammatory infiltrate” value [2]?
A: composed of neutrophils and to a lesser degree mononuclear cells

Q: And the “onset of acute inflammation” value [2]?
A: within two hours

Q: And the “endothelial cell growth (cell count)” value ([7]; three day incubation)?
A: 14.0 ± 0.4

Q: What about the “% Inhibition” value ([7]; based on seeding of 8 × 10^4 cells/well) of the same molecule?
A: 45%

Q: And the “direct inhibition of tumor cell growth in vitro” value (tumor cell growth)?
A: did not directly inhibit tumor cell growth in vitro

Q: Which “inhibition of angiogenesis on the CAM” value (angiogenesis on the CAM; 6.5 nmol dosages) does the source give for polylysine [reference compound] here?
A: not to cause inhibition

Q: What does the source list for `COc1ccc2c(c1)c(CC(=O)O)c(C)n2C(=O)c1ccc(Cl)cc1` [indomethacin]?
A: growth of implanted tumors (Implanted tumors): grew rapidly after day 6; effect on the inflammatory cell infiltrate induced by rPF4 [8]: partially abrogated; effect on the rPF4 pro-inflammatory response ([8]; FIG. 8): significantly blunts

Q: Which “prevention of heparin inhibition of Factor Xa” value [5] does the source give for “C-41: 41 amino acid C-terminal peptide of PF4 (IKAGPHCPTAQLIATLKNGRKICLDLQAPLYKKIIKKLLES; Platelet factor 4; UniProt P02776 61-101, looked up, fragment)” here?
A: prevented heparin inhibition less effectively

Q: And the “prevention of heparin inhibition of thrombin” value [6]?
A: prevented heparin inhibition less effectively

Q: And the “Pro-inflammatory response Infiltrating” value [2]?
A: ++

Q: And the “Pro-inflammatory response Swelling” value [2]?
A: ++

Q: What about the “composition of the inflammatory infiltrate” value [2] of the same molecule?
A: composed of neutrophils and to a lesser degree mononuclear cells

Q: What about the inflammatory response [2] of the same molecule?
A: pro-inflammatory

Q: protamine [reference compound] was tested. Which “prevention of heparin inhibition of Factor Xa” value [5] did it give?
A: approximately equimolar concentrations

Q: And the “prevention of heparin inhibition of thrombin” value [6]?
A: approximately equimolar concentrations

B1: rPF4-241: PF4 mutant, four lysine residues near the C-terminus changed to two Gln-Glu couplets: P L Y Q E I I Q E L L E S (protein, UniProt P02776 32-101, looked up, variant K61Q K62E K65Q K66E)
Platelet factor 4: EAEEDGDLQCLCVKTTSQVRPRHITSLEVIKAGPHCPTAQLIATLKNGRKICLDLQAPLYQEIIQELLES
modifications: Platelet factor 4 recombinant
notes: PF4 mutant, four lysine residues near the C-terminus changed to two Gln-Glu couplets: P L Y Q E I I Q E L L E S
Q: B1 was tested. Which “inhibition of human umbilical vein endothelial cell proliferation” value [1] did it give?
A: effective at inhibiting the proliferation

Q: And the “biological activity in the HUVEC assay” value [1]?
A: enhanced activity

Q: What about the “inhibition of angiogenesis in the CAM system” value (angiogenesis on the CAM; 1.25 nmol/disc, lowest concentration tested, FIG. 5) of the same molecule?
A: extensively inhibited angiogenesis

Q: And the “reversal of the inhibitory effect by heparin” value (angiogenesis on the CAM; CAM)?
A: not reversed by heparin

Q: And the “biological activity in the CAM assay” value (angiogenesis on the CAM)?
A: enhanced activity

Q: What about the “inhibition of angiogenesis compared with native rPF4” value (angiogenesis on the CAM; equal concentrations, larger avascular zones) of the same molecule?
A: even more effective

Q: What about the “tumor growth on continued treatment” value ([4]; daily injection into the tumor) of the same molecule?
A: same effect was observed

Q: What about the heparin-binding activity ([5]; Factor Xa inhibition assay) of the same molecule?
A: lacked heparin-binding activity

Q: And the “Pro-inflammatory response Infiltrating” value [2]?
A: +

Q: What about the “Pro-inflammatory response Swelling” value [2] of the same molecule?
A: +

B2: rPF4-307: rPF4 mutant, C-terminal sequence P L Y Q I E I Q L E L E S (protein, UniProt P02776 32-101, looked up, variant K61Q K62I I63E I64I K65Q K66L L67E L68L)
Platelet factor 4: B1 Platelet factor 4 with E62I, I63E, E66L, L67E
modifications: Platelet factor 4 recombinant
Q: How did the “biological activity in the HUVEC assay” value [1] turn out when B2 was run?
A: enhanced activity

Q: And the “biological activity in the CAM assay” value (angiogenesis on the CAM)?
A: enhanced activity

B3: rPF4-302: rPF4 mutant, C-terminal sequence P L Y Q Q I I Q Q L L E S (protein, UniProt P02776 32-101, looked up, variant K61Q K62Q K65Q K66Q)
Platelet factor 4: B1 Platelet factor 4 with E62Q, E66Q
modifications: Platelet factor 4 recombinant
Q: With B3 as the molecule, how does the “biological activity in the HUVEC assay” value [1] read?
A: does not exhibit significant activity

Q: What about the “biological activity in the CAM assay” value (angiogenesis on the CAM) of the same molecule?
A: does not exhibit significant activity
